The source of these data is patent US7754748B2, “Method for treating obesity” (Duke University, priority 2002, dated 2010).

Series [1] in a line: Example 2 case: obese person, bupropion then zonisamide added. In kind it is in vivo, human. The protocol:
At this point, zonisamide was added to the regimen at 100 mg/day and the dose was increased after 2 weeks to 200 mg/day. […] No further information is available as the patient has relocated.

The conditions of series [2]: epileptic patients taking other concomitant AEDs; small percent of patients; cited from earlier work.
Series [3] can be described thus: Example 3 case: obese person, zonisamide then bupropion SR added. In kind it is in vivo, human. On the procedure:
An obese person (weight 246 lb, BMI 41.4 kg/m^2) who had not benefited from various treatments, was started on zonisamide 100 mg/day and the dose was increased gradually to 400 mg a day over the next 4 weeks. […] At this point, zonisamide dose was increased to 600 mg a day; the patient achieved an additional weight loss of 0.6 lb in the next month. Thus, after 3 months of zonisamide therapy, the total weight loss with zonisamide therapy was 5.2 lb. […] They reported that they felt “full” after eating small portions of food, and had more energy.

Series [4] is described as follows: optional 16-week single-blinded extension phase (to Week 32), zonisamide vs placebo in obese subjects. In kind it is in vivo, human. The settings on record: Week 32, versus placebo; p<0.0030, p<0.0651, p<0.0019, P<0.0005.
Series [5] in a line: Example 4 case: obese person, zonisamide then bupropion added. Format: in vivo, human. On the procedure:
An obese person received zonisamide in a clinical trial and achieved weight loss of 35.6 lb over 32 weeks. During the 5 weeks following discontinuation of zonisamide, they gained 7.7 lb. Zonisamide was restarted, but this intervention was unsuccessful in offsetting the regained weight; after 16 weeks of therapy at doses up to 400 mg/d, the patient gained 1.2 lb.

Series [6] is described as follows: optional 16-week single-blinded extension phase (to Week 32), zonisamide vs placebo in obese subjects. In kind it is in vivo, human. Particulars: for mean weight loss at Week 32: placebo 1.82% (0.73%). On the procedure: (§1) The study had two phases. The first was the acute phase—a 16-week, randomized, double blind, parallel-group comparison of zonisamide (ZON) and placebo (PBO). This was followed by an optional 16-week extension phase. At the end of the acute phase, subjects wishing to continue further received the same treatment for an additional 16 weeks in a single-blinded fashion.
(§2) During each visit, the following assessments were performed: blood pressure, heart rate, weight, dietary compliance, medication accountability and tolerability, and adverse effects. Body weight was measured on a calibrated electronic scale to the nearest 0.1 kilogram. A registered dietitian reviewed food diaries and assessed dietary compliance. Adverse effects were gathered via spontaneous reporting by subjects as well as open-ended inquiries by the clinicians.
In addition to the above, the subjects completed the Impact of Weight on Quality of Life (IWQOL) (Kolotin et al, Obesity Res. 3:49-56 (1995)) at baseline, Week 8, and Week 16. The IWQOL is a self-report measure with 74 items that assess the perceived effect of weight on quality of life in the following domains (subscales)—health, social/interpersonal life, work, mobility, self-esteem, sexual life, activities of daily living, and eating (comfort with food). Improvement with treatment is reflected by decreasing scores on all the subscales with the exception of the eating (comfort with food) subscale, which is expected to show less comfort around food with effective treatment. Body composition (fat and lean masses) and bone mineral density (BMD) were determined, at baseline and Week 32, by dual x-ray absorptiometry (DXA; Hologic 2000, Waltham, Mass.). All DXA measurements were gathered using the same equipment and techniques. Subjects were instructed to fast for 8 hours and not to drink water or other beverages for at least 4 hours prior to DXA measurement.
Weight change during the study was assessed in terms of actual weight change over the six study intervals using multivariable regression methodology, and as a dichotomous outcome of ‘response,’ i.e., 5% weight loss at Week 16, and 5% and 10% weight loss at Week 32. The proxy variables denoting response status were tested across treatment conditions again using Fisher's exact test. Three multivariable regression analyses were conducted. In the first, body weight at each time point was modeled using a random effects growth curve model. Heuristically, the model fits a regression line for each subject using available data points, thus maximizing use of actual data. For the second set of analyses, body weights were regressed as above with missing observations carried forward from the last recorded weight based on an intent-to-treat approach (LOCF). The final model was restricted to the subset of respondents with no missing data (completers).
Secondary analyses were conducted over three general areas of interest. In each case, analyses were based on 2×2 repeated measures ANOVAs that included time, drug condition, and their interaction (time-by-drug). The primary interest in each instance was to determine if subjects in the zonisamide condition were differentially affected relative to controls as operationally determined by testing the significance of the estimated interaction term. Tests in first area of interest focused on clinical indicators including levels of creatinine, glucose, triglycerides, high and low density lipoproteins (all assessed at baseline and study conclusion), waist measurements (baseline, Week 8 and Week 16), blood pressure (systolic and diastolic), and heart rate. The second general area of sampled quality of life indicators including activities of daily living, appetite, esteem, health, interpersonal relations, mobility, sex, and work using the IWQOL Scale; repeated measurements were taken at baseline, Week 8, and Week 16). The final set of secondary analyses sampled hunger and appetite using the Visual Analogue Scale for Hunger and Food Cravings. […]

Series [7] in a line: 16-week randomized, double blind acute phase, zonisamide vs placebo in obese subjects. In kind it is in vivo, human.
Source text: Sixty-eight subjects were screened for participation and 60 subjects were randomized.
Inclusion criteria were: male or female, aged 21-50 years, with body mass index (BMI) of ≧30 kg/m^2.
as §1
The subjects were randomized in a 1:1 ratio to receive zonisamide or placebo capsules. Study medication was dispensed under blinded conditions through computer-based randomization. The randomization was generated using a random number table with a block size of ten. There was no stratification by gender or other demographics. The study investigators were blind to the “blocking” method used by the pharmacy. The treatment assignment codes were not available to the investigators until all subjects completed the acute phase, the data were entered, and the database for this phase was locked, meaning that no further changes could be made to the data.
The study medication was dispensed in the form of capsules. Each capsule contained either 100 milligrams zonisamide or placebo. The capsules were made to look identical. The dose escalation was as follows: one capsule (zonisamide 100 mg or placebo) every evening for the first 2 weeks; two capsules (zonisamide 200 mg or placebo) every evening during Weeks 3 and 4; three capsules (zonisamide 300 mg or placebo) every evening during Weeks 5 and 6; and, four capsules (zonisamide 400 mg or placebo) every evening from Week 7 onward. At Week 12, the dose could be increased further to six capsules (zonisamide 600 mg or placebo) every evening for subjects who had not lost at least 5% of their initial body weight. If a subject preferred not to take all six capsules at one time, taking a half of the daily dose in the morning was an option. Based on tolerability, dose escalation could be withheld, or the dose might also be decreased. Medication compliance was overseen by recording the number of tablets returned and comparing this number to the number of capsules dispensed at each visit.
Subjects in both treatment groups were instructed to follow an individual diet that was 500 Kcal/day less than what they needed to maintain their weight. The prescribed diet, based on eating a variety of foods from the Food Guide Pyramid, emphasized decreasing portions, eating more fruits and vegetables, and drinking 8 cups of water each day. Increased physical activity was also encouraged for subjects in both groups. Subjects were asked to record their dietary intake including portion sizes in food diaries, which were provided to them. A registered dietician reviewed food diaries and provided counseling to all subjects. Subjects were encouraged to make healthy changes in their diets and physical activity that could be maintained after the completion of the study.
as §2
In addition to the above, the subjects completed the Impact of Weight on Quality of Life (IWQOL) (Kolotin et al, Obesity Res. 3:49-56 (1995)) at baseline, Week 8, and Week 16. The IWQOL is a self-report measure with 74 items that assess the perceived effect of weight on quality of life in the following domains (subscales)—health, social/interpersonal life, work, mobility, self-esteem, sexual life, activities of daily living, and eating (comfort with food). […]

A value given as a limit tells only on which side of the number the result lay.

`CC(NC(C)(C)C)C(=O)c1cccc(Cl)c1` (centres unmarked) [bupropion] gave a net weight loss in series [1] (after 2 months on bupropion) of 1.6 lbs. The same molecule had a weight lost in series [1] (after one month, bupropion 150 mg twice a day, start weight 271 lb) of 5 lbs. This molecule also displayed a weight regained in series [1] (during the second month on bupropion) of 3.4 lbs.
For the molecule `NS(=O)(=O)Cc1noc2ccccc12` [zonisamide], the “weight loss observed as an adverse effect” value in series [2] is listed as “a small degree of weight loss”. Further, the total weight loss in series [3] (after 3 months of zonisamide therapy) amounted to 5.2 lb. Besides, in series [3] (after one month, zonisamide up to 400 mg a day, start weight 246 lb), the weight lost is 4.6 lbs. This molecule gave an additional weight loss in series [3] (in the next month, zonisamide 600 mg a day) of 0.6 lb. Also, the “weight change during the second month” value in series [3] (zonisamide 400 mg a day) was “no further weight loss”. In addition, the “Impact of Weight on Quality of Life (IWQOL): Health, Work, Mobility, Activities of Daily Living” value in series [4] is listed as “improved more significantly”. In addition, in series [5] (after 16 weeks of restarted zonisamide at doses up to 400 mg/d), the “weight gained on restarted therapy” value is reported as 1.2 lb. Moreover, in series [5] (during the 5 weeks following discontinuation of zonisamide), the “weight gained following discontinuation” value came to 7.7 lb. In series [5] (over 32 weeks, zonisamide in a clinical trial), this molecule returned a weight loss of 35.6 lb. Moreover, in series [6] (DXA, baseline vs Week 32), the “bone mineral density at lumbar vertebrae (L-BMD)” value was “did not change over time”. Further, the “total bone mineral density” value in series [6] (DXA, baseline vs Week 32, both groups, no difference between groups, not clinically significant) is recorded as “small, but statistically significant (p<0.017) increase”. For the same molecule, the mean lipid values entry in series [6] (either treatment, significant reductions for some subjects) is recorded as “No clinically significant changes”. Moreover, the “serum creatinine after treatment” value was 0.92 (0.03) mg/dL in series [6] (extension phase subjects, baseline 0.78 (0.03) mg/dL, placebo 0.75 to 0.77) and 0.92 (0.03) mg/dL in series [7] (acute phase, baseline 0.79 (0.03) mg/dL, placebo 0.76 to 0.79). Also, the “estimated rate of occurrence of kidney stones” value in series [6] (for the duration of treatment in this study (approximately 8 months)) was 62.5 per 1000 patient-years of exposure. Further, in series [6] (from 96.88 (3.01) kg, placebo 96.39 to 94.85 kg), the “absolute weight at Week 32” value is on record as 87.64 (2.95) kg. Also, in series [6] (none of the placebo subjects, p<0.0004), the “subjects who lost >=10% weight at Week 32” value was “Ten of 19”. Further, the heart rate entry in series [6] (over 32 weeks) is on record as “no significant change”. Further, the “mean weight loss at Week 32” value came out at 9.4% in series [6] and 9.37% in series [6] (listed as Zonisamide). The “heart rate change versus placebo” value in series [7] (16 weeks, overall sample decreased approximately 2 beats/min) is given as “no difference between the groups”. Besides, in series [7] (ITT-LOCF, baseline 98.17 (2.5) kg, placebo 97.75 to 96.86 kg), the “absolute weight at Week 16” value is 92.28 (2.47) kg. Moreover, the “subjects achieving >=10% weight loss at Week 16” value in series [7] (ITT-LOCF, placebo 0/30, p<0.0053) is 7/30. For the same molecule, in series [7] (ITT-LOCF, placebo 3 of 30, p<0.0003), the “subjects achieving >=5% weight loss at Week 16 (number)” value was 17 of 30. For the same molecule, the “subjects achieving >=5% weight loss at Week 16 (percent)” value in series [7] (ITT-LOCF, placebo 10%) worked out at 57%. Besides, the “predicted weight loss per week (drug-by-time interaction regression coefficient)” value in series [7] (LOCF intent-to-treat imputation) is 0.29 kg/wk; in series [7] (likelihood imputed model, versus placebo) it was greater than 0.3 kg; in series [7] (model based only on complete-data subjects), 0.21 kg/wk. In series [7] (Week 16, ITT analysis with LOCF, n=30, placebo 1.02% (0.40%), p<0.0001), the “mean (SE) estimated weight loss” value is 5.98%. In addition, the “systolic and diastolic blood pressure readings” value in series [7] (by four months) is recorded as “did not change”. The “weight loss, subjects completing the 16-week acute phase” value in series [7] (completers, Week 16, placebo 1.30% (0.49%)) is 6.61%. For the same molecule, the “increase in serum creatinine” value in series [7] (no further increase in the extension phase, no value exceeded upper limit of normal) was “approximately 16%”. The molecule further showed a subjects reporting fatigue in series [7] (of 30, placebo 1, p<0.006) of 10 subjects. The “adverse effects (AEs) reported per subject, average” value in series [7] (over the study period, placebo 1.6, p<0.125) stood at 2.1. In addition, the tolerability entry in series [7] (whole study) was “generally well tolerated”.
